Measured values from PubChem BioAssay (NCI).
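Tested at 5 concentrations; 48 h exposure; 96-well plates; endpoints linearly interpolated, else capped at highest concentration. GI50 marks 50% less growth. TGI: concentration producing complete growth inhibition.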

How the values were obtained:
Assay in all cases: growth of human tumour cells (NCI), 48 h
DU-145 prostate = test system: DU-145 prostate
MDA-N = test system: MDA-N
NCI/ADR-RES ovarian = test system: NCI/ADR-RES ovarian
RXF-631 renal = test system: RXF-631 renal
HOP-18 NSCLC = test system: HOP-18 NSCLC
DLD-1 colon = test system: DLD-1 colon
KM20L2 colon = test system: KM20L2 colon
XF 498 CNS = test system: XF 498 CNS
M19-MEL melanoma = test system: M19-MEL melanoma

SMILES: C=CC1=C(C)C2=NC1=CC1=NC(=CC3=C(C)C4=C(O)[C@H](C(=O)OC)C(=C5NC(=C2)[C@@H](C)[C@@H]5CCC(=O)O)C4=N3)C(CC)=C1C
- TGI (DU-145 prostate): > 100 µM
- TGI (MDA-N): > 100 µM
- TGI (NCI/ADR-RES ovarian): > 22.1 µM

SMILES: COc1ccc2c(NCCCCCCNc3c4ccccc4nc4cc(OC)ccc34)c3ccccc3nc2c1
- TGI (RXF-631 renal): 3.97 µM
- TGI (DU-145 prostate): 1.47 µM
- TGI (HOP-18 NSCLC): 10.9 µM
- TGI (DLD-1 colon): 2.62 µM
- TGI (MDA-N): 1.2 µM
- TGI (KM20L2 colon): 1.17 µM
- TGI (NCI/ADR-RES ovarian): 18.8 µM

SMILES: COc1cccc2c(=O)c3c(sc12)c(NCCCNCCO)nc1ccccc13
- GI50 (DU-145 prostate): 1.65 µM
- TGI (DU-145 prostate): 3.11 µM
- GI50 (NCI/ADR-RES ovarian): 1.81 µM
- TGI (NCI/ADR-RES ovarian): 3.94 µM

SMILES: CC(C)[O-].CC(C)[O-].CN(CCN(C)Cc1cc(F)cc(F)c1[O-])Cc1cc(F)cc(F)c1[O-].[Ti+4]
- GI50 (DU-145 prostate): 1.47 µM
- TGI (DU-145 prostate): 7.06 µM
- GI50 (NCI/ADR-RES ovarian): 0.863 µM
- TGI (NCI/ADR-RES ovarian): 7.05 µM

SMILES: Cc1c2ccncc2c(C)c2c1[nH]c1ccc(O)c(OCC(F)(F)F)c12
- TGI (XF 498 CNS): 22.9 µM
- TGI (DLD-1 colon): 18.2 µM
- TGI (KM20L2 colon): 27.3 µM

SMILES: COc1ccc(-c2c(C3=NCCCN3)nnn2-c2ccc([N+](=O)[O-])cc2)cc1
- TGI (HOP-18 NSCLC): > 100 µM
- TGI (DLD-1 colon): > 100 µM
- TGI (KM20L2 colon): > 100 µM
- TGI (M19-MEL melanoma): > 100 µM

SMILES: O=C(c1cccs1)C1NO[N+]([O-])=C1c1cccs1 (stereo not drawn)
- GI50 (DU-145 prostate): 3.76 µM
- TGI (DU-145 prostate): 10.7 µM
- GI50 (NCI/ADR-RES ovarian): 3.42 µM
- TGI (NCI/ADR-RES ovarian): 18.9 µM

SMILES: CCN(CC)c1ccc(/C=C/C2=[N+](C)c3ccccc3C2(C)C)c(C)c1
- GI50 (DU-145 prostate): 0.0985 µM
- TGI (DU-145 prostate): 11.6 µM
- GI50 (NCI/ADR-RES ovarian): 2.24 µM
- TGI (NCI/ADR-RES ovarian): 13 µM

SMILES: N#Cc1c(-c2ccco2)cc(-c2ccccc2)[nH]c1=O
- TGI (RXF-631 renal): > 100 µM
- TGI (DLD-1 colon): > 100 µM
- TGI (KM20L2 colon): > 100 µM
- TGI (M19-MEL melanoma): > 100 µM

SMILES: C=C1C(=O)C23C(O)C1CC[C@H]2C12CCCC(C)(COC(C)=O)[C@H]1[C@H](O)[C@]3(O)OC2 (stereo partly drawn)
- TGI (XF 498 CNS): 2.71 µM
- TGI (DU-145 prostate): 16.2 µM
- TGI (HOP-18 NSCLC): 2.54 µM
- TGI (DLD-1 colon): 1.7 µM
- TGI (KM20L2 colon): 3.01 µM
- TGI (M19-MEL melanoma): 4.69 µM

SMILES: CCNCCNc1cc(-c2ccc(C#N)cc2)c(C#N)c2nc3ccccc3n12
- GI50 (DU-145 prostate): 4.13 µM
- TGI (DU-145 prostate): 15.3 µM
- GI50 (NCI/ADR-RES ovarian): 5.74 µM
- TGI (NCI/ADR-RES ovarian): 36 µM

SMILES: O=C(Cl)C1=C(c2ccccc2)C1c1ccccc1 (stereo not drawn)
- TGI (DU-145 prostate): > 100 µM
- TGI (MDA-N): > 100 µM

SMILES: CCOC(=O)c1c(SCCN2CCOCC2)n(-c2ccccc2)c(=S)n(-c2ccccc2)c1=O
- TGI (MDA-N): > 100 µM

SMILES: O=C(NCCN1CCNCC1)c1ccc(Nc2nc3ccccc3c3occc23)cc1
- GI50 (DU-145 prostate): 3.44 µM
- TGI (DU-145 prostate): 12.5 µM
- GI50 (NCI/ADR-RES ovarian): 21 µM
- TGI (NCI/ADR-RES ovarian): 46.5 µM

SMILES: COc1ccc(Nc2nccc(N3CCN(c4c5ccc(Cl)cc5nc5ccc(OC)cc45)CC3)n2)cc1
- GI50 (DU-145 prostate): 28.7 µM
- TGI (DU-145 prostate): > 100 µM
- GI50 (NCI/ADR-RES ovarian): 7.41 µM
- TGI (NCI/ADR-RES ovarian): > 100 µM

SMILES: O=C(/C=C/c1cccc(O)c1)c1cccc(-n2cc(-c3ccc4ccccc4c3)[nH]c2=O)c1
- GI50 (DU-145 prostate): 1.75 µM
- TGI (DU-145 prostate): 3.65 µM
- GI50 (NCI/ADR-RES ovarian): 1.55 µM
- TGI (NCI/ADR-RES ovarian): 5.83 µM

SMILES: O=C(O)c1ccccc1C(=O)c1ccc2c(c1)Cc1ccccc1-2
- TGI (DU-145 prostate): > 100 µM
- TGI (MDA-N): > 100 µM
- TGI (NCI/ADR-RES ovarian): > 100 µM

SMILES: CSc1ccc(N(C)c2nc(C)nc3c2CCC3)cc1
- GI50 (NCI/ADR-RES ovarian): < 0.01 µM
- TGI (NCI/ADR-RES ovarian): 12.6 µM

SMILES: Cn1c(=O)nc2n(-c3ccc(Cl)c(C(F)(F)F)c3)c3ccccc3nc-2c1=O
- TGI (XF 498 CNS): > 78.1 µM
- TGI (HOP-18 NSCLC): > 100 µM
- TGI (DLD-1 colon): > 100 µM
- TGI (KM20L2 colon): 73.9 µM
- TGI (M19-MEL melanoma): 27.8 µM

SMILES: Cc1ccc(NC(=O)/C(Cc2cc(=O)oc3cc(O)ccc23)=N\NC(=O)C[N+](C)(C)C)cc1C
- TGI (DU-145 prostate): > 100 µM
- TGI (MDA-N): > 100 µM
- TGI (NCI/ADR-RES ovarian): > 100 µM

SMILES: COc1c(O)c(OC)c2oc(-c3ccc(O)cc3)c(OC)c(=O)c2c1O
- TGI (DU-145 prostate): > 100 µM
- TGI (MDA-N): > 100 µM
- TGI (NCI/ADR-RES ovarian): > 100 µM

SMILES: COc1ccc(C2Oc3c(c(O)cc4c3[C@H](c3ccc(O)cc3O)[C@H](O)C(c3ccc(O)c(O)c3)O4)C[C@@H]2O)cc1O (stereo partly drawn)
- TGI (HOP-18 NSCLC): > 100 µM
- TGI (DLD-1 colon): > 100 µM
- TGI (KM20L2 colon): > 100 µM
- TGI (M19-MEL melanoma): > 100 µM

SMILES: c1cnn2ncc(-c3ccnc(Nc4ccc5c(c4)OCCO5)n3)c2c1
- GI50 (DU-145 prostate): 0.0844 µM
- TGI (DU-145 prostate): 1.45 µM
- GI50 (NCI/ADR-RES ovarian): 0.0781 µM
- TGI (NCI/ADR-RES ovarian): 1.65 µM

SMILES: COc1cc2nc(-c3ccc(C(F)(F)F)cc3)cc(OCCCN3CCCC3)c2cc1OC
- GI50 (DU-145 prostate): 0.992 µM
- TGI (DU-145 prostate): > 46.6 µM
- GI50 (NCI/ADR-RES ovarian): 0.47 µM
- TGI (NCI/ADR-RES ovarian): 39 µM

SMILES: CC(C)Oc1ccc(C(=O)Cn2ccnc2)cc1-n1c(CN2CCN(C(=O)COc3ccc(Cl)cc3)CC2)nc2ccccc2c1=O
- GI50 (DU-145 prostate): 9.59 µM
- TGI (DU-145 prostate): > 100 µM
- GI50 (NCI/ADR-RES ovarian): > 100 µM
- TGI (NCI/ADR-RES ovarian): > 100 µM

SMILES: CCCCCCCCCCCC1CC(=O)NCCCN(C)CCCCN(C)CCCN1C (stereo not drawn)
- TGI (XF 498 CNS): 3.08 µM
- TGI (HOP-18 NSCLC): 3.17 µM
- TGI (DLD-1 colon): 3 µM
- TGI (KM20L2 colon): 3.01 µM
- TGI (M19-MEL melanoma): 3.24 µM

SMILES: Cc1cccc(/C(Br)=C2/OC(=O)c3ccccc32)c1
- TGI (DU-145 prostate): > 100 µM
- TGI (MDA-N): > 100 µM

SMILES: O=c1c2ccccc2sc2ccccc12
- TGI (DU-145 prostate): > 100 µM
- TGI (MDA-N): > 100 µM
- TGI (NCI/ADR-RES ovarian): > 100 µM

SMILES: CCn1c(-c2nonc2N)nc2ccncc21
- GI50 (DU-145 prostate): > 25 µM
- TGI (DU-145 prostate): > 25 µM
- GI50 (NCI/ADR-RES ovarian): > 25 µM
- TGI (NCI/ADR-RES ovarian): > 25 µM

SMILES: CC1OC(c2ccc3c(c2O)C(=O)C2=C(C3=O)C3(O)C(=O)CC(C)(O)CC3(O)C=C2)CC(O)C1O (stereo not drawn)
- TGI (DU-145 prostate): 29.1 µM
- TGI (MDA-N): 11.7 µM
- TGI (NCI/ADR-RES ovarian): 51.8 µM

SMILES: COc1cccc(COc2cc(-n3cnc4ccccc43)sc2C(N)=O)c1
- GI50 (DU-145 prostate): > 10.3 µM
- TGI (DU-145 prostate): > 25 µM
- GI50 (NCI/ADR-RES ovarian): 1.75 µM
- TGI (NCI/ADR-RES ovarian): > 25 µM

SMILES: COc1ccccc1NC(=O)/C(=C/c1ccccc1)C(C)=O
- TGI (XF 498 CNS): 89.5 µM
- TGI (HOP-18 NSCLC): > 100 µM
- TGI (DLD-1 colon): > 100 µM
- TGI (M19-MEL melanoma): > 100 µM

SMILES: Cc1cccc(C)c1N1C(=O)C(=O)C(c2nc3ccccc3s2)C(=Nc2cccc3c(=O)[nH][nH]c(=O)c23)C1=O (stereo not drawn)
- TGI (HOP-18 NSCLC): > 100 µM
- TGI (DLD-1 colon): > 100 µM
- TGI (KM20L2 colon): > 100 µM
- TGI (M19-MEL melanoma): > 100 µM

SMILES: CC1c2ccccc2N=C2SC(=S)N3CCN=C3N21 (stereo not drawn)
- GI50 (DU-145 prostate): > 100 µM
- TGI (DU-145 prostate): > 100 µM
- GI50 (NCI/ADR-RES ovarian): > 100 µM
- TGI (NCI/ADR-RES ovarian): > 100 µM

SMILES: c1ccc2[nH]c(CNc3ccc(C4C[Se]N=N4)cc3)nc2c1 (stereo not drawn)
- TGI (HOP-18 NSCLC): > 100 µM
- TGI (DLD-1 colon): > 100 µM
- TGI (M19-MEL melanoma): > 100 µM

SMILES: Cc1nc(-c2cccnc2)sc1C(=O)/C=C/c1cccc([N+](=O)[O-])c1
- TGI (RXF-631 renal): > 100 µM
- TGI (HOP-18 NSCLC): > 100 µM
- TGI (DLD-1 colon): > 100 µM
- TGI (KM20L2 colon): > 100 µM
- TGI (M19-MEL melanoma): > 100 µM

SMILES: CC(C)[O-].CC(C)[O-].O=c1cccccc1[O-].O=c1cccccc1[O-].[Ti+4]
- GI50 (XF 498 CNS): 33.8 µM
- TGI (XF 498 CNS): 97.3 µM
- GI50 (HOP-18 NSCLC): > 100 µM
- TGI (HOP-18 NSCLC): > 100 µM
- GI50 (DLD-1 colon): 42 µM
- TGI (DLD-1 colon): > 100 µM
- GI50 (KM20L2 colon): 46.1 µM
- TGI (KM20L2 colon): > 100 µM
